# Results taken from ChEMBL document CHEMBL1201862, “PubChem BioAssay data set” (2004).
#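 The compound was tested at five concentrations on cells cultured in 96-well plates, with a 48-hour exposure period. Here, GI50 denotes the concentration required for 50% inhibition of growth.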 Activity calls are given as the source filed them. No stated cut-off is given here; in the data, active = GI50 up to about 1.1 µM and inactive = higher.
# Key:
# Assay in all cases: NCI anticancer screen, dose series, 48 h
# CCRF-CEM = test system: CCRF-CEM
# UO-31 = test system: UO-31
# NCI-H23 = test system: NCI-H23
# SK-MEL-28 = test system: SK-MEL-28
# HL-60 = test system: HL-60
# M14 = test system: M14
# UACC-62 = test system: UACC-62
# OVCAR-8 = test system: OVCAR-8
# UACC-257 = test system: UACC-257
# HCC 2998 = test system: HCC 2998
# PC-3 = test system: PC-3
# IGROV-1 = test system: IGROV-1
# BT-549 = test system: BT-549
# NCI-H460 = test system: NCI-H460
# KM12 = test system: KM12
# SK-OV-3 = test system: SK-OV-3
# LOX IMVI = test system: LOX IMVI
# CAKI-1 = test system: CAKI-1
# SF-539 = test system: SF-539
SMILES,GI50 (CCRF-CEM),GI50 (UO-31),GI50 (NCI-H23),GI50 (SK-MEL-28),GI50 (HL-60),GI50 (M14),GI50 (UACC-62),GI50 (OVCAR-8),GI50 (UACC-257),GI50 (HCC 2998),GI50 (PC-3),GI50 (IGROV-1),GI50 (BT-549),GI50 (NCI-H460),GI50 (KM12),GI50 (SK-OV-3),GI50 (LOX IMVI),GI50 (CAKI-1),GI50 (SF-539)
N#Cc1ccc(Oc2nc3ccccc3nc2C(=O)O)cc1,> 100 µM (inactive),> 100 µM (inactive),> 100 µM (inactive),> 100 µM (inactive),> 100 µM (inactive),> 100 µM (inactive),> 100 µM (inactive),> 100 µM (inactive),> 100 µM (inactive),> 100 µM (inactive),> 100 µM (inactive),> 100 µM (inactive),> 100 µM (inactive),> 100 µM (inactive),> 100 µM (inactive),> 100 µM (inactive),> 100 µM (inactive),> 100 µM (inactive),
O=c1cc(-c2ccccc2)[nH]c2ccc(N3CCOCC3)cc12,0.0144 µM (active),13.2 µM (inactive),0.0414 µM (active),0.0128 µM (active),0.0151 µM (active),0.0173 µM (active),< 0.0268 µM (active),0.042 µM (active),> 100 µM (inactive),0.0468 µM (active),0.0346 µM (active),0.0518 µM (active),23.8 µM (inactive),0.0465 µM (active),< 0.0171 µM (active),0.0327 µM (active),0.0335 µM (active),0.0291 µM (active),< 0.0149 µM (active)
CCC(C)C(=O)OCC(=O)c1ccc(-c2ccccc2)cc1 (configuration not stated),35 µM (inactive),> 100 µM (inactive),63.7 µM (inactive),72.9 µM (inactive),> 100 µM (inactive),89.7 µM (inactive),79.3 µM (inactive),79.3 µM (inactive),27.2 µM (inactive),> 100 µM (inactive),63 µM (inactive),> 100 µM (inactive),45.4 µM (inactive),> 100 µM (inactive),28.1 µM (inactive),> 100 µM (inactive),34.7 µM (inactive),42.7 µM (inactive),> 100 µM (inactive)
COc1ccc(N2C(=O)CSC2c2cc(OC)c(OC)c(OC)c2)cc1 (configuration not stated),7.23 µM (inactive),11.8 µM (inactive),25.3 µM (inactive),33.4 µM (inactive),17.5 µM (inactive),18.6 µM (inactive),4.71 µM (inactive),29.9 µM (inactive),12.5 µM (inactive),16.7 µM (inactive),25.1 µM (inactive),33.7 µM (inactive),23.2 µM (inactive),18.9 µM (inactive),15.1 µM (inactive),24.2 µM (inactive),23.1 µM (inactive),25 µM (inactive),32.8 µM (inactive)
O=C1C=C(Nc2cccnc2)c2ccccc2/C1=N/O,5.85 µM (inactive),21 µM (inactive),19.7 µM (inactive),,0.789 µM (active),23.2 µM (inactive),20.9 µM (inactive),21.5 µM (inactive),33.1 µM (inactive),22.5 µM (inactive),19.5 µM (inactive),13.6 µM (inactive),34.1 µM (inactive),22.8 µM (inactive),13.6 µM (inactive),46.2 µM (inactive),26.3 µM (inactive),40.4 µM (inactive),18.5 µM (inactive)
COC(=O)c1ccccc1C1CN=NC12Cc1c(ccc(C)c1C)C2=O (configuration not stated),> 100 µM (inactive),> 100 µM (inactive),> 100 µM (inactive),> 100 µM (inactive),> 100 µM (inactive),> 100 µM (inactive),> 100 µM (inactive),61.1 µM (inactive),> 100 µM (inactive),> 100 µM (inactive),90.6 µM (inactive),> 100 µM (inactive),> 100 µM (inactive),> 100 µM (inactive),> 100 µM (inactive),72.8 µM (inactive),> 100 µM (inactive),> 100 µM (inactive),
CC(C)C1OC(/C=C/c2ccccc2)OCC1(C)C (configuration not stated),20.9 µM (inactive),34.8 µM (inactive),27.7 µM (inactive),53.3 µM (inactive),19.9 µM (inactive),36.2 µM (inactive),45.7 µM (inactive),31.6 µM (inactive),24.8 µM (inactive),19.6 µM (inactive),37.1 µM (inactive),40.1 µM (inactive),36.1 µM (inactive),17.1 µM (inactive),31 µM (inactive),48.3 µM (inactive),18.9 µM (inactive),31.8 µM (inactive),
COc1ccc(/N=C(C)/C(C)=N/c2ccc(OC)cc2)cc1,39.1 µM (inactive),6.97 µM (inactive),73.6 µM (inactive),> 100 µM (inactive),52.2 µM (inactive),9.91 µM (inactive),,58.6 µM (inactive),56.9 µM (inactive),20.2 µM (inactive),40.7 µM (inactive),> 100 µM (inactive),3.78 µM (inactive),20.3 µM (inactive),6.85 µM (inactive),> 100 µM (inactive),5.02 µM (inactive),35.5 µM (inactive),30.8 µM (inactive)
